Source: ChEMBL document CHEMBL1275573, “Inhibition of herpesvirus replication by hexadecyloxypropyl esters of purine- and pyrimidine-based phosphonomethoxyethyl nucleoside phosphonates” (Antimicrob Agents Chemother, 2008)
pEC50, pIC50: −log10 of the molar value.

What was measured:
[1] = Cytotoxicity against human HFF cells after 7 days by neutral red dye method; type: cell-based
[2] = Cytotoxicity against human HFF cells; type: cell-based
[3] = tested on: Daudi; experiment: Cytotoxicity against human Daudi cell after 4 hrs by MTS assay; type: functional
[4] = Cytotoxicity against human HSB2 cell after 4 hrs by MTS assay; type: functional; conditions: CCRF-HSB-2, 4 h
[5] = tested on: MOLT-3; experiment: Cytotoxicity against human MOLT3 cell after 4 hrs by MTS assay; type: functional; conditions: MOLT-3, 4 h
[6] = tested on: Human alphaherpesvirus 1; experiment: Antiviral activity against herpes simplex virus 1 E-377 infected in HFF cells by plaque reduction assay; type: functional, organism-based; conditions: Human alphaherpesvirus 1, E-377, HFF
[7] = Selectivity index, ratio of EC50 for herpes simplex virus type 1 E-377 to CC50 for human HFF cell
[8] = tested on: Human alphaherpesvirus 2; experiment: Antiviral activity against herpes simplex virus 2 MS infected in HFF cells by plaque reduction assay; type: functional, organism-based; conditions: Human alphaherpesvirus 2, MS
[9] = Selectivity index, ratio of EC50 for herpes simplex virus type 2 MS to CC50 for human HFF cell
[10] = tested on: Human alphaherpesvirus 3; experiment: Antiviral activity against Varicella zoster virus Ellen infected in HFF cells by plaque reduction assay; type: functional, organism-based; conditions: Human alphaherpesvirus 3, Ellen
[11] = tested on: Human betaherpesvirus 5; experiment: Antiviral activity against Human cytomegalovirus AD169 infected in HFF cells by plaque reduction assay; type: functional, organism-based; conditions: Human betaherpesvirus 5, AD169, HFF
[12] = Antiviral activity against Murine cytomegalovirus Smith infected in HFF cells by plaque reduction assay; type: functional, cell-based, Murine cytomegalovirus (strain Smith); conditions: Murid betaherpesvirus 1, HFF
[13] = Selectivity index, ratio of EC50 for Murine cytomegalovirus Smith to CC50 for human HFF cell
[14] = Antiviral activity against Epstein-Barr virus p3hr-1 infected in human daudi cells; type: functional, cell-based, Epstein-barr virus strain p3hr-1; conditions: human gammaherpesvirus 4, Daudi
[15] = Selectivity index, ratio of EC50 for Epstein-Barr virus P3HR-1 to CC50 for human daudi cell
[16] = Antiviral activity against Human herpesvirus 6A GS infected in human HSB-2 cells; type: functional, cell-based; conditions: Human betaherpesvirus 6A, HSB2
[17] = Antiviral activity against Human herpesvirus 6B Z29 infected in human MOLT-3 cells; type: functional, cell-based; conditions: Human betaherpesvirus 6B, Z29, MOLT-3
[18] = Selectivity index, ratio of EC50 for Human herpesvirus 6B Z29 to CC50 for human MOLT-3 cells

SMILES | CC50 at 168 h [1] | CC50 [2] | CC50 [3] | CC50 [4] | CC50 [5] | pEC50 [6] | Selectivity Index [7] | pEC50 [8] | Selectivity Index [9] | pEC50 [10] | pEC50 [11] | pEC50 [12] | Selectivity Index [13] | pEC50 [14] | Selectivity Index [15] | pEC50 [16] | pEC50 [17] | Selectivity Index [18] | pIC50 [16]
Nc1nc(NC2CC2)c2ncn(CCOCP(=O)(O)O)c2n1 | > 100 µM | 150 µM | 20 µM | 3 µM | 8.5 µM | 5.40 | >25 | 5.10 | >13 | 6.10 | 6.40 | > 7.22 | >1700 | 7.00 | 200 | 6.00 | 5.19 | 1 | 
CCCCCCCCCCCCCCCCOCCCOP(=O)(O)COCCn1cc(F)c(N)nc1=O | 35 µM | 33 µM | > 100 µM | 22.6 µM | > 50 µM | < 4.92 | <3 | < 4.92 | <3 | 5.59 | 5.70 | 7.10 | 440 | 5.89 | >77 | 5.14 | 4.43 | >1 | 
CCCCCCCCCCCCCCCCOCCCOP(=O)(O)COCCn1ccc(N)nc1=O | > 300 µM | 200 µM | > 100 µM | > 50 µM | > 50 µM | 3.59 | >1.1 | 4.46 | >9 | < 3.52 | < 4.70 | < 4.70 | <150 | < 4.30 | <2 | < 4.30 | < 4.30 | 1 | 
CCCCCCCCCCCCCCCCOCCCOP(=O)(O)COCCn1cc(Br)c(N)nc1=O | > 300 µM | 35 µM | > 100 µM | > 41 µM | > 50 µM | 5.92 | >250 | 4.74 | >17 | 4.38 | 5.32 | 5.89 | >230 | 7.52 | >3400 | 4.42 | < 4.35 | 1 | 
CCCCCCCCCCCCCCCCOCCCOP(=O)(O)COCCn1cnc2c(NC3CC3)nc(N)nc21 | 110 µM | 26 µM | > 50 µM | 0.05 µM | 0.3 µM | 7.00 | 1100 | 6.70 | 550 | 7.52 | 7.70 | > 7.52 | >3700 | 9.15 | >71000 | 7.30 | 7.30 | 6 | 
Nc1nc(N)c2ncn(CCOCP(=O)(O)O)c2n1 [PMEDAP] | > 100 µM | 170 µM | > 50 µM | > 56 µM | 39 µM | < 5.00 | >10 | < 5.00 | >10 | 5.54 | 4.89 | 6.70 | >500 | 5.92 | >42 | 4.82 | 4.55 | 1 | 
CCCCCCCCCCCCCCCCOCCCOP(=O)(O)COCCn1cnc2c(N)nc(N)nc21 | 120 µM | 170 µM | > 50 µM | 6.4 µM | 51 µM | 6.22 | 200 | 6.40 | 300 | 6.52 | 6.30 | 6.30 | 240 | 6.10 | >63 | 5.70 | 4.47 | 1 | 
Nc1nc(=O)n(CCOCP(=O)(O)O)cc1F |  | 220 µM |  | > 41 µM | > 50 µM |  |  |  |  |  | < 4.70 | 4.11 | 2.8 | < 4.30 |  | < 4.30 | < 4.30 | 1 | 
Nc1ccn(CCOCP(=O)(O)O)c(=O)n1 | > 300 µM | 220 µM | > 100 µM | > 50 µM | > 50 µM | < 3.52 | 1 | < 3.52 | 1 | < 3.52 | < 4.70 | 4.20 | >480 | < 4.39 | <2.4 |  | < 4.30 | 1 | < 4.30
Nc1nc(=O)n(CCOCP(=O)(O)O)cc1Br | > 300 µM | 200 µM | 27 µM | 3.9 µM | 84 µM | < 4.22 | >5 | < 4.22 | >5 | 4.42 | < 4.70 | < 4.70 | <150 | 4.62 | 1.1 | < 4.30 | < 4.33 | <2 | 
